From patent US20060014728A1, “Hormone replacement therapy” (priority 1996, published 2006)
Values joined by “and” are separate entries in the source; they are usually repeats but may differ in a detail not shown here. Equal values may be shown once.

How the values were obtained:
endometrium = assay: Antiproliferative action of antiprogestins on the endometrium in estrogen-replaced, ovariectomized cynomolgus monkeys (Example 2); type: in vivo; conditions: biopsy day 30; 1 or 3 mg/kg im daily days 1-30; estradiol capsule sc
[1] = tested on: ovariectomized cynomolgus monkeys; assay: Withdrawal menses after sequential estradiol and progesterone therapy without versus with antiprogestin treatment (menstrual challenges A and B); type: in vivo
Description: 30 ovariecomized cynomolgus monkeys were studied intensively over 12 weeks. Primates in Group I (N=5 each) received only the vehicles used for hormone delivery in Groups II-VI. Monkeys in Group II received estradiol at physiologic levels throughout (days 1 to 81) via a sc silastic implant, as well as two separate courses of progesterone at physiologic levels via a sc silastic implant (days 28 to 35 and 67 to 74). Groups III-VI received the same sequential regimen of estradiol and progesterone as Group II, but in addition were given an antiprogestin im on alternate days 39 to 67: Group III, mifepristone (RU 486) 2.0 mg/kg; Group IV, mifepristone 20.0 mg/kg; Group V, onapristone (ZK 299) 2.0 mg/kg; and Group VI, onapristone 20.0 mg/kg. The two menstrual challenge tests (A and B) were defined as the six days immediately after withdrawal of progesterone treatment (A on days 36 to 41 and B on days 75 to 80).
The protocol thus provided two periods of estrogen-only HRT treatment, one without antiprogestin followed by another with antiprogestin. Each of these two periods was followed by short-term progesterone treatment which provided a measurement of the effects on bleeding of the antiprogestin during the estrogen HRT treatment.
(§1) The monkeys were randomly distributed into six treatment group preparations (n=5 each). Group I (control) was treated with the vehicle only. One empty silastic implant was placed sc surgically from study day 1 to 81; this controlled for estradiol treatment. Another empty silastic implant was inserted sc from days 28 to 35 and from days 67 to 74 and controlled for progesterone treatment. One ml of the antiprogestin vehicle was administered im on alternate days (39 to 67). Group II received continuous estradiol progesterone at two intervals but no antiprogestins. This experimental design allowed two menstrual challenges (A and B). As described below (Groups III-VI), menstrual challenge A was without antiprogestin exposure; whereas B was with antiprogestin treatment. Group III monkeys received the sequential estradiol and progesterone regimens as in Group II but also RU 486 at 2.0 mg/kg on alternate days for four weeks (days 39 to 67). For Group IV, the same treatment occurred, except that the RU 486 dose was elevated by ten-fold (20.0 mg/kg). Similarly, primates in Groups V and VI were injected with onapristone at 2.0 and 20.0 mg/kg, respectively.
(§2) In all treatment groups, observations for menstrual bleeding were made daily by visual inspection of the vaginal labia. Femoral blood collections (4.0 ml) were taken under ketamine-induced anesthesia (10 mg/kg) on alternate days and endometrial biopsies (by hysterotomy) were obtained on days 53 and 70. Endometrial biopsies were placed in formalin […] and processed for histologic evaluation by a clinical pathologist. Thickness of the endometrial tissues was measured with an ocular micrometer to determine the depth of the endometrium at its point of maximal thickness from the myometrial unction to the epithelial layer at the lumenal surface. Endometrial status was evaluated qualitatively and classified according to the following score: atrophic:O; early proliferative: 1; late proliferative:2; interval:3; early secretory:4; and late secretory:5.

endometrial tissues = assay: Histologic evaluation of primate endometrial tissues on days 53 and 70 (Example 1); type: in vivo, cynomolgus monkeys; conditions: for Endometrial Score: score 0-atrophic to 5-secretory; for Thickness (mm): mean ± SD; for thicknesses of endometrial tissues: day 70, Groups III-VI (2.0 and 20.0 mg/kg together)
Description: Additional data were collected by measurements of estradiol, progesterone and cortisol, as well as each antiprogestin in serum drawn on alternate days (1 to 81). Also, endometrial response was examined histologically in biopsy specimens collected on days 53 and 70, both to measure thickness of endometrial tissue (i.e., anti-proliferative response) and to assess the endometrial tissue qualitatively (atrophic, proliferative, or secretory, etc.).
as §1, §2

[2] = 20.0 mg/kg im on alternate days 39-67, with estradiol + progesterone
[3] = Menstrual Challenge A, withdrawal interval days 36-41, antiprogestins: none (baseline before antiprogestin), groups later given 2 mg/kg
[4] = Menstrual Challenge A, withdrawal interval days 36-41, antiprogestins: none (baseline before antiprogestin), groups later given 20 mg/kg
[5] = Menstrual Challenge B, withdrawal interval days 75-80, estradiol + progesterone + antiprogestin 2 mg/kg im on alternate days 39-67
[6] = Menstrual Challenge B, withdrawal interval days 75-80, estradiol + progesterone + antiprogestin 20 mg/kg im on alternate days 39-67
[7] = Day 53, antiprogestin 2.0 mg/kg
[8] = Day 53, antiprogestin 20.0 mg/kg
[9] = Day 53, estradiol + progesterone + antiprogestin 2.0 mg/kg im alternate days 39-67
[10] = Day 53, estradiol + progesterone + antiprogestin 20.0 mg/kg im alternate days 39-67
[11] = Day 70, antiprogestin 2.0 mg/kg
[12] = Day 70, antiprogestin 20.0 mg/kg
[13] = Day 70, estradiol + progesterone + antiprogestin 2.0 mg/kg im alternate days 39-67
[14] = Day 70, estradiol + progesterone + antiprogestin 20.0 mg/kg im alternate days 39-67

| Compound | classification of endometrial specimens (developmental stage) (endometrium) | bleeding outcome during menstrual challenge B ([1]; 2.0 mg/kg im on alternate days 39-67, with estradiol + progesterone) | bleeding outcome during menstrual challenge B [1, 2] | Incidence of Bleeding, Days [1, 3] | Incidence of Bleeding, Days [1, 4] | Incidence of Bleeding, Days [1, 5] | Incidence of Bleeding, Days [1, 6] | Endometrial Score (endometrial tissues; [7]) | Endometrial Score (endometrial tissues; [8]) | Thickness (mm) (endometrial tissues; [9]) | Thickness (mm) (endometrial tissues; [10]) | Endometrial Score (endometrial tissues; [11]) | Endometrial Score (endometrial tissues; [12]) | Thickness (mm) (endometrial tissues; [13]) | Thickness (mm) (endometrial tissues; [14]) | thicknesses of endometrial tissues (endometrial tissues) | Incidence of Bleeding, Days ([1]; Menstrual Challenge B, withdrawal interval days 75-80, estradiol + progesterone + antiprogestin 2 mg/kg im on alternate days 39-67, listed as ONA) | histological evaluation of endometrium (endometrial tissues; Group V, 2.0 mg/kg) |
| --- | --- | --- | --- | --- | --- | --- | --- | --- | --- | --- | --- | --- | --- | --- | --- | --- | --- | --- |
| C[C@]12C[C@@H]3c4ccc(-c5ccc(C#N)cc5)cc4C[C@]45CCC(=O)C=C4CC[C@@H]([C@H]35)[C@@H]1CC[C@@]2(O)/C=C/CO [ZK136798] | interval | – | – | – | – | – | – | – | – | – | – | – | – | – | – | – | – | – |
| CC#C[C@]1(O)CC[C@H]2[C@@H]3CCC4=CC(=O)CCC4=C3[C@@H](c3ccc(N(C)C)cc3)C[C@@]21C [mifepristone, 11β-(4-dimethylaminophenyl)-17β-hydroxy-1-propinyl-4,9estradien-3-one] | proliferative | complete amenorrhea | complete amenorrhea | 13/30 | 12/30 | 0/30 | 0/30 | 3.6 | 3.8 | 2.5 ± 0.2 | 2.2 ± 0.2 | 2.4 | 2.8 | 1.8 ± 0.2 mm | 1.3 ± 0.1 | approximately 1.5 mm | – | – |
| CN(C)c1ccc([C@H]2C[C@]3(C)[C@@H](CC[C@]3(O)CCCO)[C@@H]3CCC4=CC(=O)CCC4=C32)cc1 [onapristone, 1β-(4-dimethylaminophenyl)-17-hydroxy-17β-(3-hydroxypropyl)-13-methyl-4,9-gonadien-3-one] | interval | – | complete amenorrhea | 9/30 | 9/30 | three | 0/30 | 3.8 | 3.6 | 2.6 ± 0.2 | 2.2 ± 0.1 | 4.0 | 3.0 | 1.6 mm and 1.6 ± 0.1 mm | 1.7 ± 0.1 | approximately 1.5 mm | 3/30 | well-developed secretory glands |
